Source: ChEMBL document CHEMBL4043249, “Discovery of potent antiviral (HSV-1) quinazolinones and initial structure-activity relationship studies” (Bioorg Med Chem Lett, 2017)
Calls of active or inactive are those of the source. No cut-off for these calls is given here.

Columns and labels:
[1] = tested on: Human alphaherpesvirus 1; experiment: Anti-viral activity against Herpes simplex virus-1 harboring EGFP infected in iPSC-derived neurons assessed as reduction in ICP0 expression at 10 to 50 uM treated 2 hrs post infection measured after 72 hrs by Alexa fluor 488 staining based flow cytometric analysis; format: functional
[2] = tested on: Human alphaherpesvirus 1; experiment: Anti-viral activity against Herpes simplex virus-1 harboring EGFP infected in iPSC-derived neurons assessed as viable cells at 10 mM treated 2 hrs post infection measured after 72 hrs by Alexa fluor 488 staining based flow cytometric analysis (reference value: 17.8%); format: functional
[3] = tested on: Human alphaherpesvirus 1; experiment: Anti-viral activity against Herpes simplex virus-1 harboring EGFP infected in iPSC-derived neurons assessed as early apoptotic cells at 10 mM treated 2 hrs post infection measured after 72 hrs by Alexa fluor 488 staining based flow cytometric analysis (reference value: 13.2%); format: functional
[4] = tested on: Human alphaherpesvirus 1; experiment: Anti-viral activity against Herpes simplex virus-1 harboring EGFP infected in iPSC-derived neurons assessed as late apoptotic cells at 10 mM treated 2 hrs post infection measured after 72 hrs by Alexa fluor 488 staining based flow cytometric analysis (reference value: 65.7%); format: functional
[5] = tested on: Human alphaherpesvirus 1; experiment: Anti-viral activity against Herpes simplex virus-1 harboring EGFP infected in iPSC-derived neurons assessed as necrotic cells at 10 mM treated 2 hrs post infection measured after 72 hrs by Alexa fluor 488 staining based flow cytometric analysis (reference value: 3.33%); format: functional
[6] = tested on: Human alphaherpesvirus 1; experiment: Anti-viral activity against Herpes simplex virus-1 harboring EGFP infected in iPSC-derived neurons assessed as viable cells at 50 mM treated 2 hrs post infection measured after 72 hrs by Alexa fluor 488 staining based flow cytometric analysis (reference value: 17.8%); format: functional
[7] = tested on: Human alphaherpesvirus 1; experiment: Anti-viral activity against Herpes simplex virus-1 harboring EGFP infected in iPSC-derived neurons assessed as early apoptotic cells at 50 mM treated 2 hrs post infection measured after 72 hrs by Alexa fluor 488 staining based flow cytometric analysis (reference value: 13.2%); format: functional
[8] = tested on: Human alphaherpesvirus 1; experiment: Anti-viral activity against Herpes simplex virus-1 harboring EGFP infected in iPSC-derived neurons assessed as late apoptotic cells at 50 mM treated 2 hrs post infection measured after 72 hrs by Alexa fluor 488 staining based flow cytometric analysis (reference value: 65.7%); format: functional
[9] = tested on: Human alphaherpesvirus 1; experiment: Anti-viral activity against Herpes simplex virus-1 harboring EGFP infected in iPSC-derived neurons assessed as necrotic cells at 50 mM treated 2 hrs post infection measured after 72 hrs by Alexa fluor 488 staining based flow cytometric analysis (reference value: 3.33%); format: functional
[10] = tested on: Vero; experiment: Cytotoxicity against African green monkey Vero cells assessed as effect on cell viability at 10 to 1000000 nM; format: cell-based; conditions: chlorocebus sabaeus, 1000 µM
[11] = tested on: NSC; experiment: Cytotoxicity against NSC (unknown origin) assessed as effect on cell viability at 10 to 1000000 nM; format: cell-based; conditions: 1000 µM
[12] = tested on: Neuron; experiment: Cytotoxicity against neurons (unknown origin) assessed as effect on cell viability at 10 to 1000000 nM; format: cell-based; conditions: 1000 µM
[13] = tested on: Human alphaherpesvirus 1; experiment: Anti-viral activity against Herpes simplex virus-1 harboring EGFP infected in iPSC-derived neurons assessed as reduction in ICP0 expression at 50 uM treated 2 hrs post infection measured after 72 hrs by Alexa fluor 488 staining based flow cytometric analysis; format: functional
[14] = tested on: Human alphaherpesvirus 1; experiment: Anti-viral activity against Herpes simplex virus-1 harboring EGFP infected in iPSC-derived neurons assessed as reduction in ICP0 expression treated 2 hrs post infection measured after 72 hrs by Alexa fluor 488 staining based flow cytometric analysis; format: functional
[15] = Cytotoxicity against human induced pluripotent stem cell-derived neurons assessed as effect on cell viability after 24 hrs by live/dead fixable aqua dead cell staining based assay; conditions: induced pluripotent stem cell-derived neuron
[16] = Cytotoxicity against human induced pluripotent stem cell-derived neurons assessed as morphological changes after 48 to 72 hrs by live/dead fixable aqua dead cell staining based assay; conditions: induced pluripotent stem cell-derived neuron
[17] = tested on: Human alphaherpesvirus 1; experiment: Anti-viral activity against Herpes simplex virus-1 harboring EGFP infected in iPSC-derived neurons assessed as reduction in ICP0 expression at 10 uM treated 2 hrs post infection measured after 72 hrs by Alexa fluor 488 staining based flow cytometric analysis; format: functional
[18] = Induction of heterochromatinization in Induced pluripotent stem cell-derived neuron (unknown origin) infected with HSV-1 assessed as increase in H3K27 trimethylation at ICP4 gene by chromatin immunoprecipitation based RT-PCR analysis

COc1ccc(-n2c(-c3ccc(Nc4ccccc4)cc3)nc3ccccc3c2=O)cc1
Activity [1]: inactive

COc1ccc(-n2c(-c3ccc(OCc4ccc(Br)cc4)cc3)nc3ccccc3c2=O)cc1
Activity [2]: 91.6% | Activity [3]: 3.18% | Activity [4]: 4.64% | Activity [5]: 0.6% | Activity [6]: 88.9% | Activity [7]: 3.36% | Activity [8]: 5.03% | Activity [9]: 2.91% | Activity [1]: Active | Activity [10]: Toxic | Activity [11]: Toxic | Activity [12]: Toxic

COc1ccc(Oc2ccc(-c3nc4ccccc4c(=O)n3-c3ccc(OC)cc3)cc2)cc1
Activity [1]: inactive

COc1ccc(-n2c(-c3ccc(OCc4ccccc4)cc3)nc3ccccc3c2=O)cc1
Activity [13]: Active | Activity [14]: Active | Activity [15]: Toxic | Activity [16]: Toxic

COc1ccc(-c2nc3ccccc3c(=O)n2-c2ccc(Br)cc2)cc1
Activity [14]: Active

Nc1nc2c(ncn2COCCO)c(=O)[nH]1 [ACYCLOVIR]
Activity [2]: 89.6% | Activity [3]: 7.92% | Activity [4]: 1.36% | Activity [5]: 1.13% | Activity [6]: 92.6% | Activity [7]: 6.22% | Activity [8]: 0.44% | Activity [9]: 0.76%

O=c1c2ccccc2nc(-c2ccc(Br)cc2)n1-c1ccc(Br)cc1
Activity [14]: Active

CCCCCCn1c(-c2ccc(OCc3ccccc3)cc2)nc2ccccc2c1=O
Activity [14]: inactive

COc1ccc(-n2c(-c3ccc(Oc4ccc(OC(F)(F)F)cc4)cc3)nc3ccccc3c2=O)cc1
Activity [1]: inactive

O=c1c2ccccc2nc(-c2ccc(OCc3ccc(Br)cc3)cc2)n1-c1ccc(Br)cc1
Activity [1]: Active

O=c1c2ccccc2nc(-c2ccc(OCc3cccc(Br)c3)cc2)n1-c1ccc(Br)cc1
Activity [1]: Active

O=c1[nH]c(-c2ccc(OCc3ccccc3)cc2)nc2ccccc12
Activity [14]: inactive

COc1ccc(-n2c(-c3ccc(Oc4ccc(Cl)cc4)cc3)nc3ccccc3c2=O)cc1
Activity [1]: inactive

COc1ccc(-n2c(-c3ccc(OCc4cccc(Br)c4)cc3)nc3ccccc3c2=O)cc1
Activity [2]: 90.1% | Activity [3]: 3.24% | Activity [4]: 6.1% | Activity [5]: 0.59% | Activity [6]: 82% | Activity [7]: 3.76% | Activity [8]: 9.96% | Activity [9]: 4.31% | Activity [1]: Active | Activity [10]: Toxic | Activity [11]: Toxic | Activity [12]: Toxic

O=c1c2ccccc2nc(-c2ccc(OCc3ccccc3)cc2)n1-c1ccc(Br)cc1
Activity [13]: Active | Activity [17]: Active | Activity [14]: Active | Activity [15]: Toxic | Activity [16]: Toxic | Activity [18]: Non-Toxic

COc1ccc(-n2c(-c3ccc(Oc4ccccc4)cc3)nc3ccccc3c2=O)cc1
Activity [1]: inactive
